Here are results for 15 compounds from ChEMBL document CHEMBL5625161, “Pharmacological activity and mechanism of pyrazines” (Eur J Med Chem, 2023).

Data set [1] has as its target Histone deacetylase 1 (Homo sapiens, UniProt Q13547). The data set can be described thus: Inhibition of human recombinant HDAC1.
In data set [2] the target is Histone deacetylase 2 (Homo sapiens, UniProt Q92769). Description: Inhibition of human recombinant HDAC2.
Data set [3] deals with Histone deacetylase 3 (Homo sapiens, UniProt O15379). Description: Inhibition of human recombinant HDAC3.
In data set [4] the target is Acetylcholinesterase (Homo sapiens, UniProt P22303). Description: Inhibition of AChE (unknown origin).
In data set [5] the target is Cholinesterase (Homo sapiens, UniProt P06276). Description: Inhibition of BchE (unknown origin).
The subject of data set [6] is HT-29. Description: Antiproliferative activity against human HT-29 cells assessed as reduction in cell viability incubated for 24 hrs by MTT assay. Particulars: HT-29, 24 h. The data set is classed as functional, cell-based. On the technique in general: Formazan colour is commonly taken as a measure of viable cells.
Data set [7] deals with HeLa. Description: Antiproliferative activity against human HeLa cells assessed as reduction in cell viability incubated for 24 hrs by MTT assay. The data set is classed as functional, cell-based.
The subject of data set [8] is PC-3. Description: Antiproliferative activity against human PC-3 cells assessed as reduction in cell viability incubated for 24 hrs by MTT assay. The data set is classed as functional, cell-based. Particulars: PC-3, 24 h.
For data set [9], the system named is OVCAR-5. The data set can be described thus: Cytotoxicity against human OVCAR-5 cells assessed as reduction in cell growth incubated for 72 hrs by CCK-8 assay. Particulars: OVCAR-5, 72 h. The data set is classed as functional, cell-based.
For data set [10], the system named is A549. Description: Cytotoxicity against human A549 cells assessed as reduction in cell growth incubated for 72 hrs by CCK-8 assay. The data set is classed as functional, cell-based. Particulars: A549, 72 h.
In data set [11] the test system is HEY. Description: Cytotoxicity against human HEY cells assessed as reduction in cell growth incubated for 72 hrs by CCK-8 assay. The data set is classed as functional, cell-based.
The test system of data set [12] is SK-OV-3. The data set can be described thus: Cytotoxicity against human SK-OV-3 cells assessed as reduction in cell growth incubated for 72 hrs by CCK-8 assay. Particulars: SK-OV-3, 72 h. The data set is classed as functional, cell-based.
The subject of data set [13] is SW626. The data set can be described thus: Cytotoxicity against human SW626 cells assessed as reduction in cell growth incubated for 72 hrs by CCK-8 assay. Particulars: SW626, 72 h. The data set is classed as functional, cell-based.
In data set [14] the test system is ES-2. Description: Cytotoxicity against human ES2 cells assessed as reduction in cell growth incubated for 72 hrs by CCK-8 assay. As to conditions: ES-2, 72 h. The data set is classed as functional, cell-based.
In data set [15] the test system is NCI-H460. The data set can be described thus: Cytotoxicity against human NCI-H460 cells assessed as reduction in cell growth incubated for 72 hrs by CCK-8 assay. The data set is classed as functional, cell-based. Particulars: NCI-H460, 72 h.
Data set [16] deals with NCI-H1299. The data set can be described thus: Cytotoxicity against human NCI-H1299 cells assessed as reduction in cell growth incubated for 72 hrs by CCK-8 assay. The data set is classed as functional, cell-based. As to conditions: NCI-H1299, 72 h.
In data set [17] the test system is Caco-2. The data set can be described thus: Cytotoxicity against human Caco-2 cells assessed as reduction in cell growth incubated for 72 hrs by CCK-8 assay. The data set is classed as functional, cell-based. Particulars: Caco-2, 72 h.
Data set [18] addresses Coagulation factor X (Homo sapiens, UniProt P00742). The data set can be described thus: Inhibition of human factor Xa.
Data set [19] relates to SW 1116. The data set can be described thus: Antiproliferative activity against human SW 1116 cells assessed as reduction in cell growth incubated for 48 hrs by MTT assay. The data set is classed as functional, cell-based. Particulars: SW 1116, 48 h.
Data set [20] deals with Telomerase reverse transcriptase (Homo sapiens, UniProt O14746). The data set can be described thus: Inhibition of telomerase (unknown origin).
Data set [21] relates to A549. The data set can be described thus: Antiproliferative activity against human A549 cells assessed as reduction in cell viability incubated for 48 hrs by SRB assay. As to conditions: A549, 48 h. The data set is classed as functional, cell-based.
In data set [22] the test system is H322. Description: Antiproliferative activity against human H322 cells assessed as reduction in cell viability incubated for 48 hrs by SRB assay. The data set is classed as functional, cell-based. As to conditions: NCI-H322, 48 h. For orientation: In SRB staining, fixed cells bind dye roughly in proportion to their protein.
Data set [23] deals with FaDu. Description: Antiproliferative activity against human FaDu cells assessed as inhibition of cell growth incubated for 72 hrs by 3H-thymidine incorporation assay. The data set is classed as functional, cell-based.
In data set [24] the test system is A2780. The data set can be described thus: Antiproliferative activity against human A2780 cells assessed as reduction in cell growth incubated for 72 hrs by MTT assay. The data set is classed as functional, cell-based. As to conditions: A2780, 72 h.
Data set [25] has as its system A-375. The data set can be described thus: Cytotoxicity against human A-375 cells assessed as reduction in cell growth measured after 24 hrs by MTT assay. Particulars: A-375, 24 h. The data set is classed as functional, cell-based.
Data set [26] has as its system BGC-823. The data set can be described thus: Cytotoxicity against human BGC-823 cells assessed as reduction in cell viability incubated for 24 hrs by MTT assay. As to conditions: BGC-823, 24 h. The data set is classed as functional, cell-based.
Data set [27] concerns 4T1. Description: Cytotoxicity against mouse 4T1 cells assessed as reduction in cell growth incubated for 48 hrs by MTT assay. The data set is classed as functional, cell-based. As to conditions: 4T1, 48 h.
For data set [28], the system named is HUVEC. Description: Antiproliferative activity against VEGF-stimulated human HUVEC cells assessed as reduction in cell viability incubated for 72 hrs by Cell Counting Kit-8 assay. The data set is classed as functional, cell-based.
Data set [29] can be described thus: Antiproliferative activity against mouse L929 cells assessed as inhibition of cell growth incubated for 5 days by MTT assay. The data set is classed as toxicity, cell-based.
Data set [30] concerns MCF7. The data set can be described thus: Antiproliferative activity against human MCF7 cells assessed as reduction in cell growth incubated for 48 hrs by MTT assay. The data set is classed as functional, cell-based. As to conditions: MCF7, 48 h.
The test system of data set [31] is MDA-MB-231. Description: Antiproliferative activity against human MDA-MB-231 cells assessed as reduction in cell growth incubated for 48 hrs by MTT assay. The data set is classed as functional, cell-based. Particulars: MDA-MB-231, 48 h.
The test system of data set [32] is HepG2. The data set can be described thus: Cytotoxicity against human HepG2 cells assessed as reduction in cell viability incubated for 72 hrs by MTT assay. The data set is classed as functional, cell-based. Particulars: HepG2, 72 h.
A short description of data set [33]: Antiproliferative activity against mouse […] cells assessed as inhibition of cell growth incubated for 48 hrs by MTT assay. The data set is classed as functional, cell-based. As to conditions: 48 h.

Structures are written as SMILES.

Cholinesterase, sequence (P06276 whole entry): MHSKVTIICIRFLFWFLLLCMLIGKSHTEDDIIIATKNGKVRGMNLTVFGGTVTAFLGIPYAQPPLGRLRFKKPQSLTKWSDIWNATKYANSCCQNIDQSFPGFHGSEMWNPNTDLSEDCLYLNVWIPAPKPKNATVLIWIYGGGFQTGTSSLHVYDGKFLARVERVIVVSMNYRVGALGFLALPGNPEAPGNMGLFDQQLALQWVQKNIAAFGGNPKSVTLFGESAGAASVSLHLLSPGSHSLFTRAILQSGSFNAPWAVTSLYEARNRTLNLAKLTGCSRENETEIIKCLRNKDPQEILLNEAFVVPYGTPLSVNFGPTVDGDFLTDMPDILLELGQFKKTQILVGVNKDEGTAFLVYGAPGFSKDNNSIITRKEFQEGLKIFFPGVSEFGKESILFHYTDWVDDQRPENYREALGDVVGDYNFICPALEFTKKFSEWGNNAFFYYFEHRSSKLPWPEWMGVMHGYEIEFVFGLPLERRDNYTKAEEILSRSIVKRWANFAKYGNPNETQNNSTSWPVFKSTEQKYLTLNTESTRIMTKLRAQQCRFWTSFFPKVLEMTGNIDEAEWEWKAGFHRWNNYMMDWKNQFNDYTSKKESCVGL
Acetylcholinesterase, sequence (P22303 whole entry): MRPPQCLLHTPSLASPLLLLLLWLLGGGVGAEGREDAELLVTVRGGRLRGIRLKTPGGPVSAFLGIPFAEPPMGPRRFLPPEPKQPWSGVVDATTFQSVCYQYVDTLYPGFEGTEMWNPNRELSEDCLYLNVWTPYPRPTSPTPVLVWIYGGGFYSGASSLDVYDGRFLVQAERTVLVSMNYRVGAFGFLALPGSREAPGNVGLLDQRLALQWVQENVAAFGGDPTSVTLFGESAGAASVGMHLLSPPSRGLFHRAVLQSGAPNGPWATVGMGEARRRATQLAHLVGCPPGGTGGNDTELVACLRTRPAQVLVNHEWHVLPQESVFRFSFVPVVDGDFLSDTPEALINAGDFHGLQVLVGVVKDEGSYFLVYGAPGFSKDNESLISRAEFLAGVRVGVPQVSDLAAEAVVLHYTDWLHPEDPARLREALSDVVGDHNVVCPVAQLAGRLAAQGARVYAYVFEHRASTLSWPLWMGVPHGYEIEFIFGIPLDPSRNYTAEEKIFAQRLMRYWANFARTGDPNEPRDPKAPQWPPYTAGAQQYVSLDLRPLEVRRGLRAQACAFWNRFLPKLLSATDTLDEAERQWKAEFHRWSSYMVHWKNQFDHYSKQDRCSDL
Telomerase reverse transcriptase, sequence (O14746 whole entry): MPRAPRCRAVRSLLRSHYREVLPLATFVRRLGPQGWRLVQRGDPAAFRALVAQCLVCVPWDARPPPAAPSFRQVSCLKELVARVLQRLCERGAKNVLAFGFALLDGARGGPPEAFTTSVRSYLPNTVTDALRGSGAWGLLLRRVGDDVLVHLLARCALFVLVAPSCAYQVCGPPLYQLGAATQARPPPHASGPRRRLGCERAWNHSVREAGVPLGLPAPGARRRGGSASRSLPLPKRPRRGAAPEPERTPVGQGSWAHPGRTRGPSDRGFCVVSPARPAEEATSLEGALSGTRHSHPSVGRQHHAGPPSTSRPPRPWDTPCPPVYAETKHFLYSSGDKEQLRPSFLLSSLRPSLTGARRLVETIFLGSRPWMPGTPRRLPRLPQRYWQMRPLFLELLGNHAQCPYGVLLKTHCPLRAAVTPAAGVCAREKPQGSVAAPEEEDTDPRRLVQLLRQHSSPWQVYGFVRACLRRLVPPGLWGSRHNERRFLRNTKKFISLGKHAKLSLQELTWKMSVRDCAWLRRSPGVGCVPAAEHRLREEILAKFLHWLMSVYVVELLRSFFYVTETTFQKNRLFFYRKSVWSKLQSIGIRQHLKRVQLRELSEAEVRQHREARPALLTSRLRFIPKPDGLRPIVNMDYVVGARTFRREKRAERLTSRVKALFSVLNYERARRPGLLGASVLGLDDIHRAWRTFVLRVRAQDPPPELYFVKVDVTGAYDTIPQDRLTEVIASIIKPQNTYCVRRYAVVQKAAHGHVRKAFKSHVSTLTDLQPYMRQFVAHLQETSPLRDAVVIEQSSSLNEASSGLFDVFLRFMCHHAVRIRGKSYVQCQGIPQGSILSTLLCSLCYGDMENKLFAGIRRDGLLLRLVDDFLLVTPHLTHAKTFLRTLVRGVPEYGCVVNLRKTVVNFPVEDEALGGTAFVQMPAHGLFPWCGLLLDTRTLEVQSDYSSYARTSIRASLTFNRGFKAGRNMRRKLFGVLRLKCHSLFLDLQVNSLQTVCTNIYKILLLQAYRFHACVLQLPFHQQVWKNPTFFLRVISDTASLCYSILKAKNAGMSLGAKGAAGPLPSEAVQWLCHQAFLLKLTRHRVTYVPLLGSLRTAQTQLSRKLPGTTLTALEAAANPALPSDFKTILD
Coagulation factor X, sequence (P00742 41-179 limits assumed): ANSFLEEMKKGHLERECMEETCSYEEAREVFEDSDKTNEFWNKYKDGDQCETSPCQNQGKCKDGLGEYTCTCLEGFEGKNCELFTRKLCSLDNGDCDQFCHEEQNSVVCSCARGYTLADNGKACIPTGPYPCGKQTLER
Coagulation factor X, sequence (P00742 235-488 limits assumed): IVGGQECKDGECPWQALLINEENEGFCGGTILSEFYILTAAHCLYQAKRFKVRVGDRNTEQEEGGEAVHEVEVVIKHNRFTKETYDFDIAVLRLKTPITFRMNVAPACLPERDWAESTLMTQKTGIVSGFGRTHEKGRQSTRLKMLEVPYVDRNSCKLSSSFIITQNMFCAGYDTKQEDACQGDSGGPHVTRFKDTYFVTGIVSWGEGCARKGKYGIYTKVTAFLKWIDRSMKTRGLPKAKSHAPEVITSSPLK
Histone deacetylase 3, sequence (O15379 whole entry): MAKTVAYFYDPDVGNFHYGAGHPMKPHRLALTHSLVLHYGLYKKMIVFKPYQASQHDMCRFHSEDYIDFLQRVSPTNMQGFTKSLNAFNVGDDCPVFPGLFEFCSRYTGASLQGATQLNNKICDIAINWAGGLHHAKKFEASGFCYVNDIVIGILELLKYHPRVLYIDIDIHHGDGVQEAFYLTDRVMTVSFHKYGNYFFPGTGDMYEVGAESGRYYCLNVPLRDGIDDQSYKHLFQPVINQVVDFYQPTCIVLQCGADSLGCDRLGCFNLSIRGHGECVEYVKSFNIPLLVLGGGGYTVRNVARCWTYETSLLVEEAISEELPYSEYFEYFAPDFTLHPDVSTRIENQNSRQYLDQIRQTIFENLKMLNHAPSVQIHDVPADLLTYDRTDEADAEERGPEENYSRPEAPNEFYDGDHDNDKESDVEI
Histone deacetylase 1, sequence (Q13547 whole entry): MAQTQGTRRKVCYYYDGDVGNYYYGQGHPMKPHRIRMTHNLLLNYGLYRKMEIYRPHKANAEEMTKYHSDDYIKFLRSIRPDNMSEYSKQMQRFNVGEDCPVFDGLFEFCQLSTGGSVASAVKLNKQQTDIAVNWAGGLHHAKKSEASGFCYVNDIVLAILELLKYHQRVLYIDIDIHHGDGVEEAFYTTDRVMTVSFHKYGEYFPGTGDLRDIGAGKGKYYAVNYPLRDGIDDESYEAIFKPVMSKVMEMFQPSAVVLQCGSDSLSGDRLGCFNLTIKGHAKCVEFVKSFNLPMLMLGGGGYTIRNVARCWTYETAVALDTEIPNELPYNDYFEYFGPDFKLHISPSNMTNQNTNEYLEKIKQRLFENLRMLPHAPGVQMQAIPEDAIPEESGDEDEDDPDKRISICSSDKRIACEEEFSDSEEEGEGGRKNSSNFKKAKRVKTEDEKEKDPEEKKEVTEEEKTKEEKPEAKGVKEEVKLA
Histone deacetylase 2, sequence (Q92769 whole entry): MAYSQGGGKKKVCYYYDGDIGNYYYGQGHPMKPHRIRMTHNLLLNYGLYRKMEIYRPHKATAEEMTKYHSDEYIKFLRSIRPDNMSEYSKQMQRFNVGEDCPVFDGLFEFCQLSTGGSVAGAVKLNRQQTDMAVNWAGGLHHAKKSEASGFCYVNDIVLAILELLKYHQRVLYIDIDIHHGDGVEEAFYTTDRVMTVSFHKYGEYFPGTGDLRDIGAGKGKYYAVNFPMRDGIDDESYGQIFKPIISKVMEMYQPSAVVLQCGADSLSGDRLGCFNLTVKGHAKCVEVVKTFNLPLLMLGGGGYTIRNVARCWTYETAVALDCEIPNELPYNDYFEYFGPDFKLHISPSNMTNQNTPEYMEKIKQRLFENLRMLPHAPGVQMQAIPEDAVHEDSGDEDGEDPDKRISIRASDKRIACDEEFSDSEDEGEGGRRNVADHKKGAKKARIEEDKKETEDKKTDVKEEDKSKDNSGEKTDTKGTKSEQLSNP

With `CN1CCN(c2cnc(C(=O)Nc3cc(-c4cccs4)ccc3[N+](=O)[O-])cn2)CC1`, the IC50 in data set [1] is 70 nM; in [2] it was 260 nM; in data set [3], 6.1 µM.

As to `Fc1cccc(-c2cnc3cccnc3n2)c1`, the concentration for half-maximal inhibition (IC50) in [4] was 800 nM; in [5], 583 nM.

Turning to `CN(CCCN(C)CCN1C(=O)c2cccc3c2c(cc2nccnc23)C1=O)CCN1C(=O)c2cccc3c2c(cc2nccnc23)C1=O`, the IC50 in [6] came to 20 nM; in data set [7], 80 nM; in data set [8], 80 nM.

As for `CC(C)N1C[C@H]2C[C@@H]1CN2c1ccc(Nc2nc(-c3ccc4cn[nH]c4c3)cn3ccnc23)cc1`, the IC50 in data set [9] is 1530 nM; in data set [10], 830 nM; in data set [11], 1010 nM; in [12] it was 760 nM; in [13] it was 9.17 µM; in data set [14] it was 1960 nM. The IC50 in data set [15] worked out at 1480 nM; in data set [16] it was 720 nM; in data set [17], 7.39 µM.

For `CN1C2(CCN(c3ccncc3)CC2)CN2C(=O)CN(S(=O)(=O)c3ccc4cc(Cl)ccc4c3)CC21CO` (configuration not stated), in data set [18], the concentration for half-maximal inhibition (IC50) turned out to be 0.58 nM.

For `Fc1ccc(CSc2nnc(-c3cnccn3)n2-c2ccccc2)cc1`, the half-maximal inhibitory concentration (IC50) in [19] amounted to 4.12 µM; in data set [20], 15 µM.

Consider `O=[N+]([O-])c1cccc(-c2cnc3cccnc3n2)c1`, for which the half-inhibitory concentration (IC50) in [4] was determined as 466 nM; in data set [5], 1890 nM.

As to `O=c1c2cc(-c3ccc(Cl)cc3)nn2cc(-c2ccccc2)n1CCN1CCOCC1`, the values for the IC50 in data set [21] and in data set [22] were 24.2 µM and 34.7 µM, respectively.

In the case of `C[C@H]1[C@H](C)CC[C@]2(C)CC[C@]3(C)C(=CC(=O)[C@@H]4[C@@]5(C)Cc6nccnc6[C@](C)(C(=O)OCc6ccccc6)[C@@H]5CC[C@]43C)[C@H]12`, the IC50 in data set [23] is > 30 µM; in data set [6] it was 12200 nM; in data set [24] it was 13.7 µM; in data set [25], 2100 nM.

Consider `CC(C)(O)CCC[C@](C)(O)C1CC[C@]2(C)[C@@H]1[C@H](O)C[C@@H]1[C@@]3(C)Cc4nccnc4C(C)(C)[C@@H]3CC[C@]12C` (some centres not stated), for which, in [26], the IC50 was 11.5 µM.

As to `Cc1cccc(-c2cnc3cccnc3n2)c1`, the half-maximal inhibitory concentration (IC50) in data set [4] worked out at 890 nM; in data set [5] it was 500 nM.

As to `Cc1nc(C)c(C(=O)NCCCCCCCCCCCCNOC(=O)c2ccc3cc[nH]c3c2)nc1C`, the IC50 in data set [27] turned out to be 1160 nM; in [28], 3.82 µM; in data set [30], 1110 nM; in [31], 840 nM. Also, in data set [29], the half-maximal inhibitory concentration (IC50) at 5 days came out at 3.16 µM.

On to `Brc1ccc(CSc2nnc(-c3cnccn3)s2)cc1`, for which the IC50 in data set [20] came out at 1.24 µM; in data set [32], 780 nM.

For the compound `CCn1nc(C2CCN(C(=O)CCO)CC2)nc1-c1cnc(N)c(-c2nnc(C(C)(C)C)o2)n1` [AZD-8835], in [33], the IC50 was 930 nM.

With `CN(CCCN(C)CCN1C(=O)c2cccc3c(N)c(N)cc(c23)C1=O)CCN1C(=O)c2cccc3c(N)c(N)cc(c23)C1=O`, the 50% inhibitory concentration (IC50) in data set [6] worked out at 60 nM; in [7] it was 90 nM; in data set [8], 180 nM.

By IC50 is commonly meant the concentration that gives 50% inhibition.
